Data on three molecules can be found in ChEMBL document CHEMBL4825673, “Total and Semisyntheses of Polymyxin Analogues with 2-Thr or 10-Thr Modifications to Decipher the Structure-Activity Relationship and Improve the Antibacterial Activity” (J Med Chem, 2021).

In brackets after ≈: the same amount, converted by molar mass. Positions of bridges follow the written chain, without caps; N, C: chain ends. Non-standard residues stand in square brackets, D forms with d. Residues, ends and D or L forms follow the SMILES beside them. *: point of attachment. Benzoyl(4-Ph) = O=C(c1ccc(-c2ccccc2)cc1)*; Octanoyl = CCCCCCCC(=O)*; Dab = NCC[C@H](N)C(=O)O

Holding throughout (assay type): functional
Conditions in all cases: read-out: MIC100

Experiment [1] concerns Pseudomonas aeruginosa. Nature of the experiment: Antibacterial activity against Pseudomonas aeruginosa PAO1 assessed as inhibition of bacterial growth incubated for 24 hrs by broth microdilution method. On the technique in general: In broth dilution the organism is exposed to a series of concentrations in liquid medium.
Experiment [2] has as its system Escherichia coli. Nature of the experiment: Antibacterial activity against Escherichia coli assessed as inhibition of bacterial growth incubated for 24 hrs by broth microdilution method.
For experiment [3], the system named is Klebsiella pneumoniae. Nature of the experiment: Antibacterial activity against Klebsiella pneumoniae assessed as inhibition of bacterial growth incubated for 24 hrs by broth microdilution method.
Experiment [4] concerns Acinetobacter baumannii. Nature of the experiment: Antibacterial activity against Acinetobacter baumannii assessed as inhibition of bacterial growth incubated for 24 hrs by broth microdilution method.
The test system of experiment [5] is Pseudomonas aeruginosa. The experiment in a line: Antibacterial activity against Pseudomonas aeruginosa assessed as inhibition of bacterial growth incubated for 24 hrs by broth microdilution method.
Experiment [6] deals with Moraxella catarrhalis. Nature of the experiment: Antibacterial activity against Moraxella catarrhalis assessed as inhibition of bacterial growth incubated for 24 hrs by broth microdilution method.
Experiment [7] relates to Escherichia coli. Nature of the experiment: Antibacterial activity against Escherichia coli ECO+14-2 assessed as inhibition of bacterial growth incubated for 24 hrs by broth microdilution method.
In experiment [8] the test system is Escherichia coli. The experiment in a line: Antibacterial activity against Escherichia coli ECO+14-3 assessed as inhibition of bacterial growth incubated for 24 hrs by broth microdilution method.
Experiment [9] concerns Escherichia coli. Nature of the experiment: Antibacterial activity against Escherichia coli ECO-14-2 assessed as inhibition of bacterial growth incubated for 24 hrs by broth microdilution method.
Experiment [10] has as its system Klebsiella pneumoniae. The experiment in a line: Antibacterial activity against Klebsiella pneumoniae KPN+14-8 assessed as inhibition of bacterial growth incubated for 24 hrs by broth microdilution method.
Experiment [11] relates to Klebsiella pneumoniae. Nature of the experiment: Antibacterial activity against Klebsiella pneumoniae KPN+14-10 assessed as inhibition of bacterial growth incubated for 24 hrs by broth microdilution method.
In experiment [12] the test system is Klebsiella pneumoniae. Nature of the experiment: Antibacterial activity against Klebsiella pneumoniae KR15-2 assessed as inhibition of bacterial growth incubated for 24 hrs by broth microdilution method.
Experiment [13] concerns Acinetobacter baumannii. The experiment in a line: Antibacterial activity against Acinetobacter baumannii ABA15-4 assessed as inhibition of bacterial growth incubated for 24 hrs by broth microdilution method.
Experiment [14] concerns Acinetobacter baumannii. The experiment in a line: Antibacterial activity against Acinetobacter baumannii ABA15-5 assessed as inhibition of bacterial growth incubated for 24 hrs by broth microdilution method.
In experiment [15] the test system is Acinetobacter baumannii. Nature of the experiment: Antibacterial activity against Acinetobacter baumannii ABA15-6 assessed as inhibition of bacterial growth incubated for 24 hrs by broth microdilution method.
In experiment [16] the test system is Acinetobacter baumannii. Nature of the experiment: Antibacterial activity against Acinetobacter baumannii AR15-4 assessed as inhibition of bacterial growth incubated for 24 hrs by broth microdilution method.
In experiment [17] the test system is Pseudomonas aeruginosa. Nature of the experiment: Antibacterial activity against Pseudomonas aeruginosa PAE15-3 assessed as inhibition of bacterial growth incubated for 24 hrs by broth microdilution method.
For experiment [18], the system named is Pseudomonas aeruginosa. Nature of the experiment: Antibacterial activity against Pseudomonas aeruginosa PAE15-5 assessed as inhibition of bacterial growth incubated for 24 hrs by broth microdilution method.
Experiment [19] has as its system Pseudomonas aeruginosa. The experiment in a line: Antibacterial activity against Pseudomonas aeruginosa PAE15-8 assessed as inhibition of bacterial growth incubated for 24 hrs by broth microdilution method.
Experiment [20] deals with Pseudomonas aeruginosa. The experiment in a line: Antibacterial activity against Pseudomonas aeruginosa PAE15-14 assessed as inhibition of bacterial growth incubated for 24 hrs by broth microdilution method.
Experiment [21] deals with Pseudomonas aeruginosa. Nature of the experiment: Antibacterial activity against Pseudomonas aeruginosa PR15-1 assessed as inhibition of bacterial growth incubated for 24 hrs by broth microdilution method.
The test system of experiment [22] is Moraxella catarrhalis. Nature of the experiment: Antibacterial activity against Moraxella catarrhalis BCA14-7 assessed as inhibition of bacterial growth incubated for 24 hrs by broth microdilution method.
Experiment [23] relates to Moraxella catarrhalis. Nature of the experiment: Antibacterial activity against Moraxella catarrhalis BCA15-3 assessed as inhibition of bacterial growth incubated for 24 hrs by broth microdilution method.
Experiment [24] relates to Pseudomonas aeruginosa. Nature of the experiment: Antibacterial activity against Pseudomonas aeruginosa ATCC 27853 assessed as inhibition of bacterial growth incubated for 24 hrs by broth microdilution method.

On to `CCCCCCCC(=O)N[C@@H](CCN)C(=O)N[C@H](C(=O)N[C@@H](CCN)C(=O)N[C@H]1CCNC(=O)[C@H]([C@@H](C)O)NC(=O)[C@H](CCN)NC(=O)[C@H](CCN)NC(=O)[C@H](CC(C)C)NC(=O)[C@@H](Cc2ccccc2)NC(=O)[C@H](CCN)NC1=O)[C@@H](C)O` (Octanoyl-[Dab]T[Dab][Dab][Dab][dF]L[Dab][Dab]T; lactam 4-C), for which the MIC in experiment [1] came to 4 µg/mL (≈ 3.36 µM); in experiment [2] it was 0.25 µg/mL (≈ 0.21 µM); in experiment [3] it was 2 µg/mL (≈ 1.68 µM); in experiment [4] it was 0.03 µg/mL (≈ 0.0252 µM); in [5] it was 0.03 µg/mL (≈ 0.0252 µM); in experiment [6], 16 µg/mL (≈ 13.5 µM). In addition, the MIC in [7] turned out to be 2 µg/mL (≈ 1.68 µM); in experiment [8], 0.25 µg/mL (≈ 0.21 µM); in [9], 0.25 µg/mL (≈ 0.21 µM); in experiment [10], 8 µg/mL (≈ 6.73 µM); in [11], 2 µg/mL (≈ 1.68 µM); in experiment [12], 2 µg/mL (≈ 1.68 µM). In addition, the MIC in experiment [13] was less than 0.03 µg/mL; in experiment [14], 0.125 µg/mL (≈ 0.105 µM); in [15] it was less than 0.03 µg/mL; in experiment [16] it was 0.06 µg/mL (≈ 0.0504 µM); in experiment [17], 0.25 µg/mL (≈ 0.21 µM); in [18], 0.125 µg/mL (≈ 0.105 µM). For the same molecule, the MIC is 0.25 µg/mL (≈ 0.21 µM) in [19]; 0.25 µg/mL (≈ 0.21 µM) in [20]; 0.25 µg/mL (≈ 0.21 µM) in experiment [21]; 32 µg/mL (≈ 26.9 µM) in [22]; 1 µg/mL (≈ 0.841 µM) in experiment [23].

`CC(C)C[C@@H]1NC(=O)[C@@H](Cc2ccccc2)NC(=O)[C@H](CCN)NC(=O)[C@@H](NC(=O)[C@H](CCN)NC(=O)[C@@H](NC(=O)[C@H](CCN)NC(=O)c2ccc(-c3ccccc3)cc2)[C@@H](C)O)CCNC(=O)[C@H]([C@@H](C)O)NC(=O)[C@H](CCN)NC(=O)[C@H](CCN)NC1=O` ({Benzoyl(4-Ph)}-[Dab]T[Dab][Dab][Dab][dF]L[Dab][Dab]T; lactam 4-C): the MIC came out at 4 µg/mL (≈ 3.22 µM) in [1]; 0.5 µg/mL (≈ 0.402 µM) in experiment [2]; 2 µg/mL (≈ 1.61 µM) in [3]; 0.06 µg/mL (≈ 0.0483 µM) in experiment [4]; 0.06 µg/mL (≈ 0.0483 µM) in experiment [5]; 8 µg/mL (≈ 6.43 µM) in experiment [6]. In addition, the MIC came to 2 µg/mL (≈ 1.61 µM) in experiment [7]; 1 µg/mL (≈ 0.804 µM) in [8]; 0.5 µg/mL (≈ 0.402 µM) in [9]; 4 µg/mL (≈ 3.22 µM) in experiment [10]; 2 µg/mL (≈ 1.61 µM) in [11]; 2 µg/mL (≈ 1.61 µM) in experiment [12]. Moreover, the MIC in experiment [13] was 0.06 µg/mL (≈ 0.0483 µM); in experiment [14], 0.06 µg/mL (≈ 0.0483 µM); in [15], 0.125 µg/mL (≈ 0.101 µM); in [16], 0.06 µg/mL (≈ 0.0483 µM); in [17], 0.5 µg/mL (≈ 0.402 µM); in [18], 0.125 µg/mL (≈ 0.101 µM). Further, the MIC was found to be 0.125 µg/mL (≈ 0.101 µM) in [19]; 0.125 µg/mL (≈ 0.101 µM) in experiment [20]; 5 µg/mL (≈ 4.02 µM) in experiment [21]; 0.06 µg/mL (≈ 0.0483 µM) in experiment [24]; 16 µg/mL (≈ 12.9 µM) in experiment [22]; 1 µg/mL (≈ 0.804 µM) in experiment [23].

Consider `CC[C@H](C)CCCCC(=O)N[C@@H](CCN)C(=O)N[C@H](C(=O)N[C@@H](CCN)C(=O)N[C@H]1CCNC(=O)[C@H]([C@@H](C)O)NC(=O)[C@H](CCN)NC(=O)[C@H](CCN)NC(=O)[C@H](CC(C)C)NC(=O)[C@@H](Cc2ccccc2)NC(=O)[C@H](CCN)NC1=O)[C@@H](C)OC(=O)[C@@H](N)Cc1ccc(O)cc1`, for which the MIC in [1] is 1 µg/mL (≈ 0.732 µM); in experiment [2] it was 0.25 µg/mL (≈ 0.183 µM); in [3], 2 µg/mL (≈ 1.46 µM); in experiment [4], 0.03 µg/mL (≈ 0.022 µM); in experiment [5], 0.125 µg/mL (≈ 0.0915 µM); in experiment [6], greater than 32 µg/mL. In addition, the MIC in experiment [7] is 2 µg/mL (≈ 1.46 µM); in experiment [8], 0.25 µg/mL (≈ 0.183 µM); in [9] it was 0.25 µg/mL (≈ 0.183 µM); in experiment [10], 4 µg/mL (≈ 2.93 µM); in [11], 2 µg/mL (≈ 1.46 µM); in experiment [12] it was 4 µg/mL (≈ 2.93 µM). Also, the MIC in experiment [13] stood at 0.06 µg/mL (≈ 0.0439 µM); in experiment [14], 0.06 µg/mL (≈ 0.0439 µM); in experiment [15], 0.03 µg/mL (≈ 0.022 µM); in [16], 0.125 µg/mL (≈ 0.0915 µM); in experiment [17] it was 0.5 µg/mL (≈ 0.366 µM); in experiment [18] it was 0.25 µg/mL (≈ 0.183 µM). Moreover, the MIC stood at 0.5 µg/mL (≈ 0.366 µM) in [19]; 0.25 µg/mL (≈ 0.183 µM) in experiment [20]; 0.5 µg/mL (≈ 0.366 µM) in [21]; 0.125 µg/mL (≈ 0.0915 µM) in [24]; 32 µg/mL (≈ 23.4 µM) in experiment [22]; 1 µg/mL (≈ 0.732 µM) in [23].
